# Measured values: ChEMBL document CHEMBL1777803, “Synthesis and SAR study of tricyclic sulfones as γ-secretase inhibitors: C-6 and C-8 positions” (Bioorg Med Chem Lett, 2011)
# Assay: nhibition of gamma secretase-mediated Abeta40 production by cell based assay
# Settings: not given
row,IC50 [nM],SMILES
1,3,O=S(=O)(N[C@@H]1CC[C@@]2(S(=O)(=O)c3ccc(Cl)cc3)c3c(F)ccc(F)c3OC[C@@]2(O)C1)C1CC1
2,11,O=S(=O)(N[C@@H]1CC[C@@]2(S(=O)(=O)c3ccc(Cl)cc3)c3c(F)ccc(F)c3OC[C@@]2(O)C1)C(F)(F)F
3,80,O=S(=O)(N[C@@H]1CC[C@@]2(S(=O)(=O)c3ccc(C(F)(F)F)cc3)c3c(F)ccc(F)c3OC[C@@]2(O)C1)C(F)(F)F

# Assay: Inhibition of gamma secretase-mediated Abeta40 production
# Settings: not given
row,IC50 [nM],SMILES
1,1300,CCS(=O)(=O)CCO[C@@]12COc3c(F)ccc(F)c3[C@]1(S(=O)(=O)c1ccc(Cl)cc1)CCC1(C2)OCCO1
2,136,O=S(=O)(c1ccc(C(F)(F)F)cc1)[C@@]12CC[C@@H](O)C[C@]1(O)COc1c(F)ccc(F)c12
3,87,CCS(=O)(=O)CCO[C@@]12COc3c(F)ccc(F)c3[C@]1(S(=O)(=O)c1ccc(Cl)cc1)CC[C@@H](O)C2
4,940,CC(C)S(=O)(=O)CCO[C@@]12COc3c(F)ccc(F)c3[C@]1(S(=O)(=O)c1ccc(Cl)cc1)CCC1(C2)OCCO1
5,27,O=S(=O)(N[C@@H]1CC[C@@]2(S(=O)(=O)c3ccc(Cl)cc3)c3c(F)ccc(F)c3OC[C@H]2C1)C(F)(F)F
6,13,O=C1CC[C@@]2(S(=O)(=O)c3ccc(Cl)cc3)c3c(F)ccc(F)c3OC[C@H]2C1
7,37,CNS(=O)(=O)CCO[C@]12CCCC[C@@]1(S(=O)(=O)c1ccc(Cl)cc1)c1c(F)ccc(F)c1OC2
8,160,CCS(=O)(=O)CCO[C@@]12COc3c(F)ccc(F)c3[C@]1(S(=O)(=O)c1ccc(Cl)cc1)CCC(=O)C2
9,21,O=C1CC[C@@]2(S(=O)(=O)c3ccc(Cl)cc3)c3c(F)ccc(F)c3OC[C@@]2(O)C1
10,170,CCSCCO[C@]12CCCC[C@@]1(S(=O)(=O)c1ccc(Cl)cc1)c1c(F)ccc(F)c1OC2
11,28,O=S(=O)(c1ccc(Cl)cc1)[C@@]12CC[C@@H](O)C[C@]1(O)COc1c(F)ccc(F)c12
12,164,O=S(=O)(CF)N[C@@H]1CC[C@@]2(S(=O)(=O)c3ccc(Cl)cc3)c3c(F)ccc(F)c3OC[C@@]2(O)C1
13,3000,O=C1CC[C@@]2(S(=O)(=O)c3ccc(Cl)cc3)c3c(F)ccc(F)c3OC[C@]2(O)C1
14,50,CN(C)S(=O)(=O)CCO[C@]12CCCC[C@@]1(S(=O)(=O)c1ccc(Cl)cc1)c1c(F)ccc(F)c1OC2
15,15,CCS(=O)(=O)CCO[C@]12CCCC[C@@]1(S(=O)(=O)c1ccc(Cl)cc1)c1c(F)ccc(F)c1OC2
16,2900,O=S(=O)(c1ccc(Cl)cc1)[C@@]12CCC3(C[C@]1(O)COc1c(F)ccc(F)c12)OCCO3
17,9,CS(=O)(=O)CCO[C@]12CCCC[C@@]1(S(=O)(=O)c1ccc(Cl)cc1)c1c(F)ccc(F)c1OC2
18,4100,O=S(=O)(NCCO[C@@]12COc3c(F)ccc(F)c3[C@]1(S(=O)(=O)c1ccc(Cl)cc1)CC[C@@H](O)C2)C(F)(F)F

row,IC50 [nM],SMILES
1,29,O=S(=O)(N[C@@H]1CC[C@@]2(S(=O)(=O)c3ccc(Cl)cc3)c3c(F)ccc(F)c3OC[C@@]2(O)C1)C1CC1
2,363,O=S(=O)(c1ccc(Cl)cc1)[C@@]12CC[C@H](O)C[C@]1(O)COc1c(F)ccc(F)c12
3,53,O=C1CC[C@@]2(S(=O)(=O)c3ccc(C(F)(F)F)cc3)c3c(F)ccc(F)c3OC[C@@]2(O)C1
4,8,CC(C)S(=O)(=O)CCO[C@]12CCCC[C@@]1(S(=O)(=O)c1ccc(Cl)cc1)c1c(F)ccc(F)c1OC2
5,212,O=S(=O)(N[C@@H]1CC[C@@]2(S(=O)(=O)c3ccc(Cl)cc3)c3c(F)ccc(F)c3OC[C@@]2(O)C1)C1CCC1
6,173,O=S(=O)(N[C@@H]1CC[C@@]2(S(=O)(=O)c3ccc(C(F)(F)F)cc3)c3c(F)ccc(F)c3OC[C@@]2(O)C1)C1CC1
7,40,CNCCO[C@]12CCCC[C@@]1(S(=O)(=O)c1ccc(Cl)cc1)c1c(F)ccc(F)c1OC2
8,52,CC(C)S(=O)(=O)CCO[C@@]12COc3c(F)ccc(F)c3[C@]1(S(=O)(=O)c1ccc(Cl)cc1)CC[C@@H](O)C2
9,180,CC(C)SCCO[C@]12CCCC[C@@]1(S(=O)(=O)c1ccc(Cl)cc1)c1c(F)ccc(F)c1OC2
10,21,O=S(=O)(N[C@@H]1CC[C@@]2(S(=O)(=O)c3ccc(Cl)cc3)c3c(F)ccc(F)c3OC[C@@]2(O)C1)C(F)(F)F
11,130,CC(C)S(=O)(=O)CCO[C@@]12COc3c(F)ccc(F)c3[C@]1(S(=O)(=O)c1ccc(Cl)cc1)CCC(=O)C2
12,68,O=S(=O)(N[C@@H]1CC[C@@]2(S(=O)(=O)c3ccc(Cl)cc3)c3c(F)ccc(F)c3OC[C@@]2(O)C1)C(F)F
13,23,O=S(=O)(N[C@@H]1CC[C@@]2(S(=O)(=O)c3ccc(C(F)(F)F)cc3)c3c(F)ccc(F)c3OC[C@@]2(O)C1)C(F)(F)F
14,12,NCCO[C@]12CCCC[C@@]1(S(=O)(=O)c1ccc(Cl)cc1)c1c(F)ccc(F)c1OC2
15,295,O=S(=O)(NCCO[C@]12CCCC[C@@]1(S(=O)(=O)c1ccc(Cl)cc1)c1c(F)ccc(F)c1OC2)C(F)(F)F
16,31,CN(C)CCO[C@]12CCCC[C@@]1(S(=O)(=O)c1ccc(Cl)cc1)c1c(F)ccc(F)c1OC2
17,26,CS(=O)(=O)NCCO[C@]12CCCC[C@@]1(S(=O)(=O)c1ccc(Cl)cc1)c1c(F)ccc(F)c1OC2
18,22,O=S(=O)(c1ccc(Cl)cc1)[C@@]12CCCC[C@@H]1COc1c(F)ccc(F)c12

# Assay: Dissociation constant, pKa of the compound in DMSO
# Assay type: physicochemical
# Settings: not given
row,pKa,SMILES
1,17.5,CS(N)(=O)=O [METHANESULFONAMIDE]

# Same assay, conditions: DMSO; read-out: pKa
row,pKa,SMILES
1,9.7,NS(=O)(=O)C(F)(F)F [TRIFLUOROMETHANESULFONAMIDE]

# Assay: nhibition of gamma secretase-mediated Abeta42 production by cell based assay
# Settings: not given
row,IC50 [nM],SMILES
1,9,O=S(=O)(N[C@@H]1CC[C@@]2(S(=O)(=O)c3ccc(Cl)cc3)c3c(F)ccc(F)c3OC[C@@]2(O)C1)C1CC1
2,33,O=S(=O)(N[C@@H]1CC[C@@]2(S(=O)(=O)c3ccc(Cl)cc3)c3c(F)ccc(F)c3OC[C@@]2(O)C1)C(F)(F)F
3,51,O=S(=O)(N[C@@H]1CC[C@@]2(S(=O)(=O)c3ccc(C(F)(F)F)cc3)c3c(F)ccc(F)c3OC[C@@]2(O)C1)C(F)(F)F
